Data taken from ChEMBL document CHEMBL1201862, “PubChem BioAssay data set” (2004).
Activity calls are given as the source filed them. No rule for the calls is given here.

Assays:
[1] = target: T1, High affinity choline transporter 1 (Homo sapiens, UniProt Q9GZV3); test: human choline transporter blockers, potency – cell-based, 5-point CRC, membrane potential dye, dose response (AID 504840); format: functional
T1 sequence (Q9GZV3 whole entry): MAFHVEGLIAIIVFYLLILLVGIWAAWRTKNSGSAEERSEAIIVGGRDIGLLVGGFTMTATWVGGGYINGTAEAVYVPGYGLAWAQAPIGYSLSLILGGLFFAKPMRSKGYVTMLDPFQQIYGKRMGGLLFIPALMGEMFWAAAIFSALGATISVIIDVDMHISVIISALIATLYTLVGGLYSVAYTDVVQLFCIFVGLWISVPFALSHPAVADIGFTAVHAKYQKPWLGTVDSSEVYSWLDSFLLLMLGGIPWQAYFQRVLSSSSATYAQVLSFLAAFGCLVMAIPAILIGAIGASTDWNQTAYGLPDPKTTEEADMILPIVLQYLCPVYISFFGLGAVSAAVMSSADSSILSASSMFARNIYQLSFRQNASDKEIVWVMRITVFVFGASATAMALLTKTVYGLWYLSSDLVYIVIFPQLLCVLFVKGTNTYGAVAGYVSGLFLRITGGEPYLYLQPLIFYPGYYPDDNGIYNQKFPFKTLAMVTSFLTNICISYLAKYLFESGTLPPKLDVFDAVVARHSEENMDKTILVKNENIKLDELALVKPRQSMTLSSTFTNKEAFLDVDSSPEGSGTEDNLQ

[2] = target: T1, High affinity choline transporter 1; test: human choline transporter blockers, potency – cell-based, 10-point CRC, membrane potential dye, dose response (AID 588401); format: functional;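 also: membrane potential dye fluorescence of choline-evoked depolarization via CHT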

IC50 [1]: 9.8 µM (active) | IC50 [2]: 4.74 µM (active)
SMILES: Cc1nnc(NCc2cccc(Cl)c2)c2ccccc12
